From US8080377B2, “Method for confirming the exposure on chrysene” (Korea Institute of Science and Technology, priority 2008, dated 2011)

What was measured:
HepG2 cells = test: 44 k whole human genome oligo microarray gene expression, cells treated with chrysene at IC20 for 48 hours (Cy5) vs untreated control (Cy3); format: cell-based
Method: HepG2 cells were distributed on a 100 mm dish at the concentration of 6×10^6 cell/ml, to which chrysene was treated for 48 hours at the concentration that was determined in Example <1-2>. Total RNA was extracted from the cells using trizol reagent (Invitrogen life technologies, USA) according to the manufacturer's instruction and the extracted RNA was purified by using RNeasy mini kit (Qiagen, USA). The genomic DNA was eliminated during the purification of RNA using RNase-free DNase set (Qiagen, USA). The total RNA was quantified by spectrophotometer and purity was measured by Agilent 2100 Bioanalyzer (Agilent Technologies, USA) and agarose gel-electrophoration.
For oligo-microarray analysis, cDNA was synthesized using the total RNA extracted from the experimental group treated with chrysene obtained in Example <2-1>. 30 μg of the total RNA and 2 μg (1 μg/μl) of oligo (dT) primer were mixed, followed by reaction for 10 minutes at 65° C. Then, the reaction mixture was put in ice, followed by annealing. Reagents were mixed as shown in Table 1 for reverse transcription of the RNA.
The total RNA extracted from the control HepG2 cell line was labeled with Cy3-dUTP (green), while the RNA extracted from the experimental HepG2 cell line treated with chrysene was labeled with Cy5-dUTP (red). At this time, the two samples were mixed and purified by Microcon YM-30 column (Millipore, USA).
Hybridization and washing were performed according to the instruction of GeneoCheck Co., Ltd. Hybridization was performed in a 62° C. oven for 12 hours. At this time, 44 k whole human genome oligo microarray (Agilent, USA) was used as a DNA microarray chip. After washing (with 2×SSC/0.1% SDS for 2 minutes, with 1×SSC for 3 minutes, with 0.2×SSC for 2 minutes), the slide was centrifuged at 800 rpm for 3 minutes and dried.
Scanning of the hybridized images on the slide was performed by using Genepix 4000B (Axon Instruments, USA). Fluorescence images of the chip washed to eliminate non-binding genes were obtained by laser fluorescence scanner. At this time, green fluorescent images indicated the activity of the gene expressed in the control, whereas red fluorescent images indicated the activity of the gene expressed specifically in the experimental group. […] The scanned images were analyzed by GenePix 4.1 software (Axon Instruments, USA) to calculate the gene expression rate. Based on the obtained data, marker genes for chrysene were selected (see FIG. 2).

[1] = animal tests; cited from earlier work

Structure (SMILES): c1ccc2c(c1)ccc1c3ccccc3ccc21 [chrysene]
- Ratio of intermediate value (HepG2 cells; ACHE (NM_015831)): 6.223
- Ratio of intermediate value (HepG2 cells; ADA (NM_000022)): 5.213
- Ratio of intermediate value (HepG2 cells; ADM (NM_001124)): 2.186
- Ratio of intermediate value (HepG2 cells; ADORA2B (AK172851)): 2.249
- Ratio of intermediate value (HepG2 cells; APOL2 (AF324224)): 2.105
- Ratio of intermediate value (HepG2 cells; APOL3 (NM_145641)): 3.196
- Ratio of intermediate value (HepG2 cells; AXL (NM_021913)): 3.268
- Ratio of intermediate value (HepG2 cells; B2M (NM_004048)): 2.006
- Ratio of intermediate value (HepG2 cells; BATF (BQ053419)): 2.221
- Ratio of intermediate value (HepG2 cells; BTG3 (BC011957)): 2.74
- Ratio of intermediate value (HepG2 cells; C1R (NM_001733)): 2.893
- Ratio of intermediate value (HepG2 cells; C1S (NM_001734)): 3.018
- Ratio of intermediate value (HepG2 cells; C4A (NM_001002029)): 2.002
- Ratio of intermediate value (HepG2 cells; C20orf139 (H18681)): 4.383
- Ratio of intermediate value (HepG2 cells; CCL3 (CR591007)): 3.347
- Ratio of intermediate value (HepG2 cells; CCL3L1 (BF662985)): 2.839
- Ratio of intermediate value (HepG2 cells; CCL14 (NM_004167)): 5.103
- Ratio of intermediate value (HepG2 cells; CCL20 (BC020698)): 2.199
- Ratio of intermediate value (HepG2 cells; CCL23 (NM_005064)): 2.761
- Ratio of intermediate value (HepG2 cells; CCND3 (AK096276)): 2.292
- Ratio of intermediate value (HepG2 cells; CD3D (NM_000732)): 54.94
- Ratio of intermediate value (HepG2 cells; CD9 (NM_001769)): 4.153
- Ratio of intermediate value (HepG2 cells; CD58 (NM_001779)): 2.794
- Ratio of intermediate value (HepG2 cells; CD79B (AK223210)): 15.33
- Ratio of intermediate value (HepG2 cells; CDKN2B (NM_078487)): 2.559
- Ratio of intermediate value (HepG2 cells; CSF1 (BC021117)): 4.788
- Ratio of intermediate value (HepG2 cells; CXCL12 (AK090482)): 2.842
- Ratio of intermediate value (HepG2 cells; DDX58 (NM_014314)): 2.333
- Ratio of intermediate value (HepG2 cells; DKFZp451C2311 (AL832451)): 2.639
- Ratio of intermediate value (HepG2 cells; DNAJA2 (AF116720)): 10.94
- Ratio of intermediate value (HepG2 cells; DNAJB2 (BC040494)): 2.053
- Ratio of intermediate value (HepG2 cells; DNAJB4 (AB209922)): 2.872
- Ratio of intermediate value (HepG2 cells; DUSP1 (AK127679)): 2.383
- Ratio of intermediate value (HepG2 cells; DUSP13 (NM_001007271)): 7.031
- Ratio of intermediate value (HepG2 cells; E2F7 (NM_203394)): 3.647
- Ratio of intermediate value (HepG2 cells; EBI3 (NM_005755)): 5.607
- Ratio of intermediate value (HepG2 cells; ELF4 (NM_001421)): 4.316
- Ratio of intermediate value (HepG2 cells; F2RL1 (NM_005242)): 2.258
- Ratio of intermediate value (HepG2 cells; F8 (NM_000132)): 2.415
- Ratio of intermediate value (HepG2 cells; FAM14A (NM_032036)): 2.706
- Ratio of intermediate value (HepG2 cells; FOS (BX647104)): 2.287
- Ratio of intermediate value (HepG2 cells; FOSL1 (NM_005438)): 5.643
- Ratio of intermediate value (HepG2 cells; GPX1 (NM_201397)): 2.85
- Ratio of intermediate value (HepG2 cells; GPX2 (BE512691)): 2.014
- Ratio of intermediate value (HepG2 cells; HLA-DOA (NM_002119)): 4.209
- Ratio of intermediate value (HepG2 cells; HRAS (NM_005343)): 2.3
- Ratio of intermediate value (HepG2 cells; HSPA4L (NM_014278)): 4.71
- Ratio of intermediate value (HepG2 cells; HSPA8 (NM_006597)): 2.313
- Ratio of intermediate value (HepG2 cells; HSPCA (AJ890082)): 2.544
- Ratio of intermediate value (HepG2 cells; ICOSLG (CB055213)): 3.644
- Ratio of intermediate value (HepG2 cells; IL4R (NM_000418)): 2.254
- Ratio of intermediate value (HepG2 cells; IL11 (NM_000641)): 4.521
- Ratio of intermediate value (HepG2 cells; ITCH (NM_031483)): 2.301
- Ratio of intermediate value (HepG2 cells; KLF6 (NM_001008490)): 2.3
- Ratio of intermediate value (HepG2 cells; KLRC3 (NM_002260)): 2.942
- Ratio of intermediate value (HepG2 cells; LIF (NM_002309)): 8.088
- Ratio of intermediate value (HepG2 cells; LY96 (BM918324)): 5.439
- Ratio of intermediate value (HepG2 cells; MAPK11 (BC027933)): 2.256
- Ratio of intermediate value (HepG2 cells; MAPK13 (AB209586)): 2.326
- Ratio of intermediate value (HepG2 cells; MBL2 (NM_000242)): 2.755
- Ratio of intermediate value (HepG2 cells; MGC3207 (AL834276)): 2.364
- Ratio of intermediate value (HepG2 cells; MR1 (AF031469)): 7.059
- Ratio of intermediate value (HepG2 cells; NALP6 (AY154461)): 2.392
- Ratio of intermediate value (HepG2 cells; NFKBIA (NM_020529)): 2.242
- Ratio of intermediate value (HepG2 cells; NINJ1 (NM_004148)): 2.107
- Ratio of intermediate value (HepG2 cells; NK4 (BF569086)): 3.138
- Ratio of intermediate value (HepG2 cells; NR3C1 (U25029)): 2.274
- Ratio of intermediate value (HepG2 cells; OAS1 (NM_016816)): 3.711
- Ratio of intermediate value (HepG2 cells; PAI, PAI1, PAI-1, PLANH1 (BX649164)): 29.05
- Ratio of intermediate value (HepG2 cells; PARD6B (BC060847)): 2.507
- Ratio of intermediate value (HepG2 cells; PARD6G (BC060797)): 3.502
- Ratio of intermediate value (HepG2 cells; PGF (NM_002632)): 2.436
- Ratio of intermediate value (HepG2 cells; PPM1D (NM_003620)): 3.647
- Ratio of intermediate value (HepG2 cells; PPP1R9B (BC008564)): 3.169
- Ratio of intermediate value (HepG2 cells; PRNP (NM_000311)): 2.313
- Ratio of intermediate value (HepG2 cells; PROCR (NM_006404)): 24.53
- Ratio of intermediate value (HepG2 cells; PTGES (AK127663)): 3.184
- Ratio of intermediate value (HepG2 cells; PTP4A1 (BC040303)): 3.183
- Ratio of intermediate value (HepG2 cells; RAE1 (AK097024)): 2.921
- Ratio of intermediate value (HepG2 cells; RPS6KA1 (BC014966)): 2.11
- Ratio of intermediate value (HepG2 cells; S100A6 (BM904612)): 5.938
- Ratio of intermediate value (HepG2 cells; SAA4 (BG564326)): 4.076
- Ratio of intermediate value (HepG2 cells; SASH1 (NM_015278)): 2.368
- Ratio of intermediate value (HepG2 cells; SEMA7A (AF069493)): 2.531
- Ratio of intermediate value (HepG2 cells; SERTAD1 (AK074652)): 4.835
- Ratio of intermediate value (HepG2 cells; SFN (BC023552)): 2.525
- Ratio of intermediate value (HepG2 cells; SGK2 (BC006523)): 4.65
- Ratio of intermediate value (HepG2 cells; STAT1 (NM_007315)): 2.268
- Ratio of intermediate value (HepG2 cells; TAP1 (BX648013)): 4.08
- Ratio of intermediate value (HepG2 cells; TAPBP (NM_172208)): 7.02
- Ratio of intermediate value (HepG2 cells; TGFA (NM_003236)): 2.487
- Ratio of intermediate value (HepG2 cells; TLR3 (BC068487)): 2.541
- Ratio of intermediate value (HepG2 cells; TMPRSS6 (NM_153609)): 2.118
- Ratio of intermediate value (HepG2 cells; TP53I11 (BC045666)): 6.008
- Ratio of intermediate value (HepG2 cells; TREM2 (NM_018965)): 43.67
- Ratio of intermediate value (HepG2 cells; TRIM22 (BC035582)): 13.79
- Ratio of intermediate value (HepG2 cells; VWF (NM_000552)): 2.476
- Ratio of intermediate value (HepG2 cells; XLKD1 (NM_006691)): 10.06
- Ratio of intermediate value (HepG2 cells; ZAP70 (AL832287)): 3.83
- Ratio of intermediate value (HepG2 cells; ZCSL2 (AK092040)): 2.303
- genes identified to be down-regulated (2.0 fold less) (HepG2 cells; out of 44,000 genes): 0.82%
- genes identified to be up-regulated (2.0 fold higher) (HepG2 cells; out of 44,000 genes): 0.73%
- number of genes identified to be down-regulated (HepG2 cells; out of 44,000 genes): 361 genes
- number of genes identified to be up-regulated (HepG2 cells; out of 44,000 genes): 323 genes
- absorption rate through skin [1]: very slow
- absorption via oral pathway [1]: absorbed
